“And” between values parts separate entries of the source, which are not always exact repeats. Equal entries are not always repeated. “Also recorded” adds a separate entry of the source.
Experiments:
[1] = system: rat neonatal cardiomyocytes; assay: cyclic AMP accumulation in rat neonatal cardiomyocytes (EIA); conditions: for attenuation of isoproterenol-stimulated cAMP accumulation: 1 μM isoproterenol, 200 nM antagonist; for β2AR response/AC activity (procaterol, forskolin): FIG. 11
Description: Ventricular cardiomyocytes were isolated from neonatal rat hearts as described before and seeded to fibronectin coated plates in DMEM21 and Coon's F12 with 10% FBS. […] Myocytes were used within 24 to 72 hr after isolation.
For pretreatment, cells were washed once in serum-free media (SFM) supplemented with 0.1% bovine serum albumin (BSA) and incubated with TGF-β1 in the presence or absence of inhibitors in the same media. Control cells were treated with the appropriate vehicles.
HBSMC or rat neonatal cardiomyocytes were subcultured in 96-well or 24-well plates for 24 hr to 48 hr, then treated with TGFβ1 (1-2ng/ml), Activin A (10-50 ng/ml) and other drugs in 1% serum-containing or serum-free media. After 24 hr incubation, phosphodiesterase inhibitor, IBMX (200 uM) was added to fresh media for 10-15 min before exposure to either 10 uM procaterol, 1 uM isoproterenol, or 10-50 uM forskolin for 10 min to stimulate cAMP production. The stimulation medium was removed and cells were lysed in 0.1M HCl. cAMP levels were measured using Direct cAMP EIA kit from Assay Designs, Inc. following manufacture's instruction.
Subsequent to treatment with TGF-β1 (1-2 ng/ml), cardiomyocytes (˜1×10^5 cells/well in 24-well plates) were incubated with phosphodiesterase inhibitor, IBMX (200 μM) for 30 min in SFM. Cells were then exposed to either procaterol (10 μM), forskolin (10-50 μM), or isoproterenol (Iso, 1 μM) for 10 min to allow for accumulation of cAMP. […] The incubations were terminated by removal of the medium. Cells in each well were lysed in 150 μl of 0.1 M HCl at room temperature (RT) for 30 min. Intracellular cAMP contents were measured using the Direct cAMP EIA kit following manufacture's instruction, and the cAMP levels were calculated in pmol/ml.

[2] = system: human bronchial smooth muscle cells (hBSMC); assay: cyclic AMP accumulation in hBSMC (EIA); assay type: cell-based
Description: Human bronchial smooth muscle cells (hBSMC) were purchased from Clonetics (BioWhittaker, Inc., Walkersville, Md.), and maintained in SmGM-2 containing 5% fetal bovine serum (Clonetics) at 37° C./5% CO2. All experiments were performed on cells at passages from 6 to 8. For pretreatment, cells were incubated in 1% serum-containing media or serum-free media in the presence or absence of TGFβ1, Activin A and other drugs. Control cells were treated with the appropriate vehicles.

[3] = system: Smad2; assay: Western blot of Smad2 phosphorylation in cardiomyocytes
Description: (§1) After incubation with TGFβ1 and other drugs, cells were washed once with 1×PBS and lysed in 0.2 ml/plate cold RIPA buffer (phosphate buffered saline, pH 7.4, 1% NP-40, 0.5% sodium deoxycholate, 0.1% sodium dodecylsulfate, 1 mM sodium orthovanadate, 1 mM NaF, 1 mM β-glycerolphosphate, 1 uM okadaic acid, 10 ng/ml aprotinin, 10 ng/ml leupeptin, 1 mM phenymethylsulfonyl fluoride). Samples were clarified by centrifugation (4° C., 10 min, 15,000×g), and protein concentration was determined by BCA method (PIRCE). Lysates with equal amounts of total cell protein (15-20 ug) were separated on 10% SDS-NuPAGE (Invitrogen) and then transferred to nitrocellulose membrane. The membrane was blocked in 3% nonfat dry milk/TBST (10 mM Tris-HCl pH 7.5, 150 mM NaCl, 0.1% Tween 20) for 1 hr, and probed with anti-Smad2/3 mouse monoclonal antibody [Transduction Laboratories (S66220); 1:500 dilution in 3% milk/TBST], or anti-phospho-Smad2 (Ser465/467) rabbit antiserum [Cell Signaling (3101S); 1:500 dilution in 3% BSA/TBST] at 4° C. overnight. Donkey anti-mouse HRP [Santa Cruz (SC-2314); 1:2000 dilution] or donkey anti-rabbit HRP [Santa Cruz (SC-23130; 1:2000 dilution] were used as secondary antibody. Immunoreactivity was detected with chemiluminescence reagent (Santa Cruz) and visualized by exposing to x-ray film (Kodak).
The binding of primary antibodies was followed by incubation for 1 hour at RT with the secondary horseradish peroxidase (HRP) conjugated goat anti-mouse or goat anti-rabbit antibody (Santa Cruz Biotechnology). Immunoreactivity was detected with chemiluminescence reagents and visualized by exposing to x-ray film (Kodak).

[4] = system: rat neonatal cardiomyocytes; assay: real-time RT-PCR of mRNA levels in cardiomyocytes; conditions: for β2-AR mRNA levels in cardiomyocytes: 24 hr pretreatment for TGF-β1
Description: Total RNA was extracted from cells using Qiagen's RNAeasy kit (Valencia, Calif.), and analyzed by quantitative real time RT-PCR [Gibson UEM, Heid C A and Williams P M. Genome Res. 6, 995-1001, 1996] using an ABI Prism™ 7700 Sequence Detection System (PE Applied Biosystems, Foster City, Calif.). This system is based on the ability of the 5′nuclease activity of Taq polymerase to cleave a nonextendable dual-labeled fluorogenic hybridization probe during the extension phase of PCR. The probe is labeled with reporter fluorescent dye at the 5′ end and a quencher fluorescent dye (6-carboxy-tetramethyl-rhodamine) at the 3′ end. When the probe is intact, reporter emission is quenched by the physical proximity of the reporter and quencher fluorescent dyes. However, during the extension phase of PCR, the nucleolytic activity of the DNA polymerase cleaves the hybridization probe and releases the reporter dye from the probe with a concomitant increase in reporter fluorescence.
Sequence specific primers and probes were designed using Primer Express software (PE Applied Biosystems, Foster City, Calif.). […] Primers were used at a concentration of 200 nM and probes at 100 nM in each reaction. Multiscribe reverse transcriptase and AmpliTaq Gold polymerase (PE Applied Biosystems, Foster City Calif.) were used in all RT-PCR reactions and PCR reactions. RT-PCR parameters were as follows: 48° C. for 30 min (reverse transcription), 95° C. for 10 min (AmpliTaq Gold activation) and 40 cycles of 95° C. for 15 sec, 60° C. for 1 min. Relative quantitation of β1-AR, β2-AR, and 18S mRNA were calculated using the comparative threshold cycle number for each sample fitted to a five point standard curve (ABI Prism 7700 User Bulletin #2, PE Applied Biosystems, Foster City Calif.). Expression levels were normalized to 18S rRNA.

[5] = system: Smad2/3 and Smad4; assay: immunofluorescence staining of Smad nuclear translocation in cardiomyocytes
Description: The nuclear translocation of Smad proteins in response to TGF-β1 was determined by immunofluorescence staining with monoclonal anti-Smad2/3 antibody (BD Transduction Labarotories) and anti-Smad4 antibody (sc-7966) (Santa Cruz Biotechnology). Briefly, myocytes cultured on Lab-Tek chamber slides (Nalge Nunc International, Naperville, Ill.) coated with fibronectin and gelatin were fixed with 4% paraformaldehyde in PBS for 5 min, then penetrated with 0.1% saponin/1% normal goat serum (NGS) in PBS for 15 min. After blocking nonspecific binding with 5% NGS/0.05% saponin in PBS for 15 min, the slides were incubated with primary antibody in 1% NGS in PBS at 4° C. overnight. After another washing and blocking, slides were incubated with a biotinylated anti-mouse antibody for 30 min, followed by fluorescein isothiocyanate (FITC)-conjugated-avidin (Vector, Burlingame, Calif.) for 30 min. Slides were dried and mounted in Vectashield (Vector). Samples were analyzed by fluorescence microscopy.

[6] = system: panel of related protein kinases; assay: panel of related protein kinases; conditions: relative to TGFβ-RI kinase
[7] = system: TGF-β mediated fibrosis; assay: TGF-β mediated fibrosis in in vitro and in vivo models; conditions: several in vitro and in vivo models
[8] = target: TGFβ-RII receptor (Homo sapiens, UniProt P37173); assay: specificity against TGFβ-RII receptor; conditions: relative to TGFβ-RI kinase
[9] = system: Smad2, Smad3; assay: Western blot of phospho-Smad2 and Smad3 in hBSMC; assay type: cell-based, human
Description: as §1

[10] = system: β2AR mRNA; assay: real-time quantitative PCR of β2AR mRNA in hBSMC; assay type: cell-based, human; conditions: TGFβ1 exposure
Text: Expression levels were normalized to 18S rRNA.

[11] = system: β2-adrenergic receptors on cell surface; assay: radioligand binding with [3H]CGP-12177 on intact hBSMC; assay type: cell-based, human; conditions: TGFβ1 exposure
Description: The number of β2-adrenergic receptors on cell surface was determined by radioligand binding using hydrophilic, membrane-impermeable β-adrenergic antagonist [^3H]CGP-12177. Intact hBSMCs in 10 cm dish were preincubated with 5 nM [^3H]-CGP 12177 in the presence or absence of 20 uM propranolol (to define the amount of nonspecific binding) in SmBM for 1 hour at 37° C. with very gentle shaking. Cells were washed 3 times with ice-cold 1×PBS containing 0.1% Tween-20 (binding buffer) and 3 more times with ice-cold 1×PBS. 400 μl of RIPA buffer containing protease inhibitors was added to the plates and cells were scraped off the plates. Cell lysates were collected and protein concentrations were determined by BCA method (PIERCE). The radioligand bound to the whole cell was quantified by liquid scintillation counter and normalized to the protein concentration.

[12] = system: β2-AR receptor binding sites; assay: radioligand binding in cardiomyocytes; assay type: cell-based, rat
Description: The radioligand binding assay was performed as described in Example 1. To define the nonspecific binding to β2-AR, 50 nM CGP-20712A were used.
Membranes were then prepared and binding of 100 pm [^125]-CYP was measured for 2 hours at 23° C. using 8 μg membrane protein, and expressed as fmol/mg protein. Binding in the presence of 100 nM CGP-20712A was defined as binding to β2-AR, while binding in the presence of 100 μM propranolol was defined as non-specific binding. Subtraction of β2-AR binding from total binding was defined as β1-AR binding. The results are shown in FIG. 25 (p<0.05 vs. vehicle).

Chain of TGFβ-RII receptor (P37173 23-567): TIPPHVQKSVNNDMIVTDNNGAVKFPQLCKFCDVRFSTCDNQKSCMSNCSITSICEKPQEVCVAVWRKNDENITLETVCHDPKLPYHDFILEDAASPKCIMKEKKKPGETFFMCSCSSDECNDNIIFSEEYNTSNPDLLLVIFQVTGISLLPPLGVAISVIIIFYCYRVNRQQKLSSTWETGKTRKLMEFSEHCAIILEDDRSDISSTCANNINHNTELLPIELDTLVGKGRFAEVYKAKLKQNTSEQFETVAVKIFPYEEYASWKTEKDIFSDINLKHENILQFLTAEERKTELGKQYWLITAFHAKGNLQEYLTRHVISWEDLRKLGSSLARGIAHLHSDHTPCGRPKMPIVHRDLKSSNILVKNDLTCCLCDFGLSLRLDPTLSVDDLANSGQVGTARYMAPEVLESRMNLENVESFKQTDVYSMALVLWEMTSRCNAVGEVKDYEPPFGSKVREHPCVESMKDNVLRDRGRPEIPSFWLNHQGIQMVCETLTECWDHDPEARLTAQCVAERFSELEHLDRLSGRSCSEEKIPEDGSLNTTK

Cn1cc(C(F)(F)F)nc1-c1ccc(OCC(O)CNCCOc2ccc(O)c(C(N)=O)c2)cc1 (centres unmarked) [CGP-20712A, reference compound]
attenuation of isoproterenol-stimulated cAMP accumulation [1]: ~75%

Fc1ccc(Cl)cc1-c1nc(Nc2ccncc2)c2nccnc2n1 [Compound No. 79]
effect on TGFβ1-induced loss of adrenergic responsiveness in hBSMC ([2]; FIG. 4): prevents | effect on TGF-β1 induced Smad2 phosphorylation/activation ([3]; pre-incubation, Compound No. 79 at 400 nM, 1 hr and 24 hr): significantly blocked | basal phosphorylation of Smad2 ([3]; resting cardiomyocytes): blocked | effect on TGF-β1 induced down-regulation of β2-AR mRNA ([4]; 5 ng/ml TGF-β1, 24 hr, dose-dependent): reversed | effect on activin-induced down-regulation of β2AR mRNA ([4]; FIG. 10): prevented | effect on decreased AC5 and AC6 mRNA levels in TGF-β1 treated cardiomyocytes ([4]; dose-dependent): inhibited | effect on TGF-β1 induced down-regulation of Smad3 mRNA ([4]; dose-dependent, within 24 hr): blocked | mRNA levels of β2-AR in TGFβ1 treated cells ([4]; high doses (400-1000 nM)): higher than that in control cells | effect on TGF-β1 induced Smad2/3 and Smad4 translocation into the nucleus ([5]; 400 nM): completely abolished | specificity over members of a panel of related protein kinases [6]: at least 20 fold | effect on TGF-β mediated fibrosis [7]: able to block | specificity against TGFβ-RII receptor [8]: > 100 fold | effect on TGFβ1-induced Smad2 phosphorylation and Smad3 down-regulation in hBSMC ([9]; FIG. 13): blocks | effect on TGFβ1-induced loss of β2AR response and AC activity ([1]; Example 1, FIG. 9): prevents | basal cAMP levels in cardiomyocytes ([1]; higher concentration): increased | isoproterenol or forskolin induced cAMP accumulation in TGF-β1 treated cardiomyocytes ([1]; pre-incubation, Compound No. 79 200 nM): preserved

Cc1ccc(OCC(O)C(C)NC(C)C)c2c1CCC2 (centres unmarked) [ICI 118, 551, reference compound]
attenuation of isoproterenol-stimulated cAMP accumulation [1]: ~25%

N#CC(=C(/N)Sc1ccccc1N)/C(C#N)=C(\N)Sc1ccccc1N [U0126, reference compound]
β2-AR mediated (procaterol stimulated) cAMP accumulation after 24 hr TGF-β1 exposure, compared to vehicle ([1]; Compound No. 79 200 nM, p38 inhibitor 0.5 μM, U-0126 5 μM, JNK inhibitor I 5 μM, TGF-β1 1 ng/ml): No significant effects; also recorded: did not affect

CCC(NC(C)C)C(O)c1ccc(O)c2[nH]c(=O)ccc12 (centres unmarked) [procaterol, reference compound]
cAMP accumulation by agonist ([1]; 10 μM procaterol): substantially increased

TGF-β1: Human recombinant transforming growth factor-β1 from R&D System
time course of loss of β2AR response (procaterol-induced cAMP) in hBSMC ([2]; more profound at 24 hr or later): after 12 hr | time course of effect on AC activity (forskolin-induced cAMP) in hBSMC ([2]; to a lesser extent): only observed 24 hr later | time of peak serine phosphorylation of Smad2 ([3]; maintained for 24 hr): 1 h | Smad7 mRNA in cardiomyocytes [4]: up-regulated | β1-AR mRNA levels in cardiomyocytes [4]: did not significantly alter | β2-AR mRNA levels in cardiomyocytes [4]: decreased β2-AR mRNA levels dramatically | earliest time of suppression of β2-AR mRNA ([4]; after treatment): 1 h | expression of βARK1, Gsα, Giα-1, Giα-3 ([4]; message or protein levels): did not alter | mRNA levels of AC5 and AC6 ([4]; time-dependent): significant reduction | Smad3 mRNA in cardiomyocytes ([4]; within 24 hr): down-regulated | β2AR mRNA in hBSMC [10]: significantly reduces | βAR binding sites on hBSMC [11]: reduces | Smad2/3 and Smad4 fluorescence staining in the nucleus ([5]; stimulation for 1 hr): dramatically increased | Smad2 phosphorylation in hBSMC [9]: induces | Smad3 expression in hBSMC [9]: down-regulated | reduction in procaterol-stimulated cAMP accumulation ([1]; TGF-β1 1 ng/ml pre-treatment 24 hr, 10 μM procaterol, maximal effect): 59±5.2% and ~60% | cAMP accumulation stimulated by forskolin ([1]; TGF-β1 exposure, 25 μM forskolin): decreased | decrease of cAMP accumulation when β2-ARs selectively stimulated by isoproterenol in the presence of CGP-20712A ([1]; TGF-β1 pretreatment 24 hr): ~65% | reduction in β1-AR mediated cAMP accumulation (isoproterenol in the presence of ICI 118, 551) ([1]; TGF-β1 pretreatment 24 hr): 16.5±3.1% | β2-AR receptor binding sites in cardiomyocytes [12]: trend to decrease

B1: activin A: Activin A obtained from R&D System (protein, UniProt P08476 311-426, looked up)
Inhibin beta A chain: GLECDGKVNICCKKQFFVSFKDIGWNDWIIAPSGYHANYCEGECPSHIAGTSGSSLSFHSTVINHYRMRGHSPFANLKSCCVPTKLRPMSMLYYDDGQNIIKKDIQNMIVEECGCS
βAR response and AC activity in hBSMC ([2]; higher concentration): causes loss of βAR response as well as reduced AC activity | β2-AR mRNA levels in cardiomyocytes [4]: down-regulated | β2AR response/AC activity (procaterol, forskolin) [1]: induces loss

B2: IL-1β: IL-1β, cytokine applied to rat cardiomyocytes (protein, UniProt Q63264 117-268, looked up)
Interleukin-1 beta: VPIRQLHCRLRDEQQKCLVLSDPCELKALHLNGQNISQQVVFSMSFVQGETSNDKIPVALGLKGLNLYLSCVMKDGTPTLQLESVDPKQYPKKKMEKRFVFNKIEVKTKVEFESAQFPNWYISTSQAEHRPVFLGNSNGRDIVDFTMEPVSS
β2AR response/AC activity (procaterol, forskolin) [1]: induces loss

Reference: patent US20040127575A1, “Method for counteracting a pathologic change in the beta-adrenergic pathway” (priority 2002, published 2004)
